Measured values from patent EP0400799A1, “Phenylpyrimidone derivatives” (SMITH KLINE & FRENCH LABORATORIES LIMITED, priority 1989, dated 1990).

Assays:
[1] = system: histamine bronchoconstriction; assay: Bronchodilatation in vivo, histamine-induced bronchoconstriction (airway resistance, Konzett-Rossler); design: species or system guinea-pigs of the Dunkin Hartley strain; settings: Cavia porcellus, iv; dose reducing histamine bronchoconstriction by 50%; anaesthetised male guinea-pigs; i.v. bolus one minute before histamine challenge; read-out: BD₅₀
Method: A. Male guinea-pigs of the Dunkin Hartley strain (500 - 600 g) were anaesthetised with Sagatal (pentobarbital sodium) (60 mg/kg i.p.). Airway resistance was measured using a modification of the classical Konzett-Rossler technique (J. Pharm. Methods, 13, 309-315, 1985). A dose of histamine which gave approximately 150% increase in airway resistance was selected for i.v. administration. Bolus doses of the compound under test were administered (i.v.) one minute before the histamine challenge and the subsequent peak inhibition of bronchoconstriction recorded.
The dose of compound required to reduce the histamine bronchoconstriction by 50% is given as the BD₅₀.

hindquarter blood flow = assay: Vasodilatation in vivo, perfused hindquarter blood flow; settings: Rattus norvegicus, iv; dose producing a 50% increase in hindquarter blood flow; anaesthetised male Wistar rats; bolus i.v.; read-out: EDHQ₅₀
Method: Male Wistar rats (300 g) were anaesthetised with a sodium 5-ethyl-5-(1-methylpropyl)-2-thiobarbiturate/sodium pentobarbitone mixture i.p. (62.5 and 22.5 mg/kg respectively). The trachea was cannulated and the rats breathed spontaneously air enriched with O₂ (5 ml/min). Blood pressure was recorded from a carotid artery and a jugular vein was cannulated for the administration of compounds. The temperature of the animal was maintained at 37°C by the use of an electric blanket. […] The perfusion circuit was primed with 5% bovine serum albumin dissolved in 0.9% sodium chloride solution, pH adjusted to 7.4. Initially the pump rate was set between 10 and 15 ml/min to match the hind quarter perfusion pressure to that of the systemic circulation. Once set, the pressure remained unaltered for the rest of the experiment. A change in the speed of the pump (equivalent to hindquarter blood flow) was used to assess the changes in hindquarter vascular resistance.
All compounds were administered as a bolus i.v. and from the dose response curves the dose required to produce a 50% increase in hindquarter blood flow (EDHQ₅₀) was determined in µmoles/kg.

[2] = system: U46619-induced bronchoconstriction; assay: Bronchodilatation in vivo, U46619-induced bronchoconstriction (airway resistance, Konzett-Rossler); design: species or system guinea-pigs of the Dunkin Hartley strain; settings: Cavia porcellus, iv; dose reducing U46619-induced bronchoconstriction by 50%; anaesthetised male guinea-pigs; i.v. bolus; U46619 infused i.v. 2.5 nmol/min; read-out: BD₅₀
Method: B. Male guinea-pigs of the Dunkin Hartley strain (500 - 600g) were anaesthetised with Sagatal (pentobarbital sodium) (60 mg/kg). Airway resistance was measured using a modification of the classical Konzett-Rossler technique (J. Pharm. Methods, 13, 309-315, 1985). U46619 (9,11-methanoepoxy-PGH₂) was infused i.v. at a rate of 2.5 nmol/min, this produced a steady state of bronchoconstriction (approximately 120% increase from basal airway resistance). The compound under test was administered by i.v. bolus injection, and the subsequent peak inhibition of bronchoconstriction recorded.
The dose of compound required to reduce the U46619-induced bronchoconstriction by 50% is given as the BD₅₀.

Compound	ED50 [1] [µmol/kg]	ED50 (hindquarter blood flow) [µmol/kg]	ED50 [2] [µmol/kg]
CCCOc1ccccc1-c1ncc(N)c(=O)[nH]1 [Ex 3, 5-Amino-2-(2-propoxyphenyl)pyrimidin-4(3H)-one]	8.34	19	
CCCOc1ccccc1-c1ncc(NC(C)=O)c(=O)[nH]1 [Ex 4, 5-Acetamido-2-(2-propoxyphenyl)pyrimidin-4(3H)-one]	8.4	15.8	3.8
CCCOc1ccccc1-c1ncc(C(N)=O)c(=O)[nH]1 [y, 1,6-dihydro-6-oxo-2-(2-propoxyphenyl)pyrimidine-5-carboxamide, reference compound]	5.6	23	
CCCOc1ccccc1-c1nccc(=O)[nH]1 [Ex 5, 2-(2-Propoxyphenyl)pyrimidin-4(3H)-one]		22	3.2
